Measurements taken from article PMC12668310, “High‐Throughput Synthesis and Screening of a Cyanimide Library Identifies Selective Inhibitors of ISG15‐Specific Protease mUSP18” (Angewandte Chemie (International Ed. in English), 2025).

Biological target: T1, Flag-mUSP18 (Mus musculus, UniProt Q9WTV6)
T1 construct: expressed in transfected cells; host or cells: HEK293T
T1 sequence (Q9WTV6 1-368): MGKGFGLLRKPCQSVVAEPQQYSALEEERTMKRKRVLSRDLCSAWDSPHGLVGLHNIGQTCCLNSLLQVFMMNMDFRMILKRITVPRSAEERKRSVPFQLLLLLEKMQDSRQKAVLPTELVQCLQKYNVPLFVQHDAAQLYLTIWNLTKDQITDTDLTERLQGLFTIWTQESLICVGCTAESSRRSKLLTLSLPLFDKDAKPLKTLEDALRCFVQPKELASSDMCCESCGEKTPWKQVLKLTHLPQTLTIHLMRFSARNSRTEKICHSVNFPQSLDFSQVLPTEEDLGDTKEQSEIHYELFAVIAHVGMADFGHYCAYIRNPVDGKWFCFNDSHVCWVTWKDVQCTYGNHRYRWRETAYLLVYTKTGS
Assay: Gel-based ABPP with Rho-mISG15ct-PA probe in HEK293T cells overexpressing Flag-mUSP18
Format: cell-based, murine
Conditions: live HEK293T cells, Flag-mUSP18, 4 h treatment
Description: To assess the cellular target engagement and cell permeability of these inhibitors, we performed activity‐based protein profiling. […] Following washing and cell lysis, cell extracts were incubated with a Rhodamine‐tagged murine ISG15 C‐terminal domain propargylamide activity‐based probe (Rho‐mISG15ct‐PA), which covalently labels the active site cysteine of active deISGylating enzymes.^[ [41] ^] The labelled enzymes were resolved by SDS‐PAGE and imaged by in‐gel fluorescence, where inhibition of USP18 is reflected by disappearance of the USP18‐probe‐labelled bands around 55 kDa (Figures 6a, S11A). All three inhibitors engaged with cellular mUSP18 in a dose‐dependent manner, with BB07CA902 and BB07CA28 showing efficient inhibition already at 1 µM concentration. […] The in‐cell selectivity of these inhibitors for USP18 over DUBs was confirmed in a similar ABPP experiment using a Rhodamine‐tagged ubiquitin propargylamide probe (Rho‐Ub‐PA),^[ [42] ^] which labels the active site cysteine of all active cysteine DUBs.
Figure 6 Inhibition of murine USP18 activity in living cells. a) Gel‐based ABPP potency assessment using a Rho‐mISG15ct‐PA probe in HEK293T cells overexpressing Flag‐mUSP18. At 24 h following transfection, cells were incubated with DMSO or increasing concentrations of indicated inhibitors for 4 h, lysed, and treated with Rho‐mISG15ct‐PA probe. Top panel: fluorescence scan. Middle panel: anti‐Flag western blot. Bottom panel: anti‐GAPDH western blot confirms equal loading. b) Accumulation of ISGylation in mouse IFN‐β‐stimulated EL4 cells. At 24 h following mouse IFN‐β treatment, cells were incubated with DMSO or increasing concentrations of indicated inhibitors for 4 h, lysed, and treated with Rho‐mISG15ct‐PA probe. […] Middle panel: fluorescence scan. […]
Samples were then diluted 3-fold with water and analyzed by mass spectrometry by injecting 2 μL into a Waters XEVO-G2 XS Q-TOF mass spectrometer equipped with an electrospray ion source in positive mode (capillary voltage 1.2 kV, desolvation gas flow 900 L/h, T = 60 °C) with a resolution of R = 26,000. […]

Row | SMILES | concentration at which inhibition of mUSP18 probe labelling is observed
1 | Cc1cc(C(=O)N[C@H]2C[C@@H]3CN(C#N)C[C@@H]3C2)ccc1Br [BB07CA28] | ≤ 1 µM
2 | Cc1cc(C(=O)N[C@H]2C[C@@H]3CN(C#N)C[C@@H]3C2)ccc1C(C)C [BB07CA902] | ≤ 1 µM
